Results as given in US20220000762A1, “COMPOSITIONS FOR TREATING OXIDATIVE STRESS-ASSOCIATED SKIN DISEASES AND SKIN AGEING AND DIAGNOSIS OF OXIDATIVE STRESS-ASSOCIATED SKIN DISEASES” (priority 2019, published 2022).

Experiment: ABTS radical cation assay
Format: biochemical
Conditions: RoxP peptides, ABTS assay (Example 12), increased with concentration
Method: FIG. 4: RoxP antioxidant activity under adverse conditions. The ability of RoxP to reduce ABTS radical cations, denoted by a decrease in absorbance at 734 nm, was tested in multiple settings. Different concentrations of recombinant RoxP (rRoxP) (0.2-3.2 μM) in sodium phosphate buffer (20 mM, pH 7.4) (A), rRoxP (2.7 μM) incubated with salt solutions (B), pre-heated rRoxP (2.7 μM) incubated for 20 min in temperatures ranging from RT to 98° C. and allowed to cool down to ambient temperature prior to activity measurements (C), or rRoxP (2 μM) stored at room temperature for up to 2 weeks (D) were added to a solution of pre-formed ABTS radicals and the absorbance recorded after 30 sec.
The reduction of pre-formed ABTS radical cations in the presence of RoxP was analysed using a spectrophotometric assay previously described by Re et al. (1999 Free Radic Biol Med 26:1231-1237). 2,2′-azinobis(3-ethylbenzothiazoline-6-sulfonic acid) diammonium salt (ABTS) (Sigma-Aldrich) was initially dissolved in ddH2O to a concentration of […]. Potassium persulfate (Merck KGaA, Darmstadt, Germany) was subsequently added to a final concentration of 2.45 mM and the resulting solution kept dark and incubated overnight at RT. Formed ABTS radicals were diluted with PBS (pH 7.4) until reaching an absorbance of approximately 0.7 at 734 nm. Antioxidants (1.7 μM) were added (1:9 v/v) and the absorbance spectrum 500 to 900 nm recorded after 30 sec.

Sequence	antioxidant activity
RTLSYCAYPHYVN (Cutibacterium acnes) [RoxP-Peptide 2]	display antioxidant activity
VRADGYQESMVTRVLDDK (Cutibacterium acnes) [RoxP-Peptide 1]	display antioxidant activity
